Assay results reported in the supplement of paper PMC10307832.

Assays:
Assay in all cases: relative viability (nuclei count vs DMSO), 5 days (fraction); higher = more cells survive
[1] = compound: C1COCCN1C2=NC(=NC3=C2OC4=C3C=CC=N4)C5=CC(=CC=C5)NC(=O)C6=CN=C(C=C6)N + CS(=O)(=O)CCNCc1ccc(-c2ccc3ncnc(Nc4ccc(OCc5cccc(F)c5)c(Cl)c4)c3c2)o1 [Lapatinib] (partner 2 µM)
Summary of the method: (§1)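 Relative viability divides the nuclei count in treated wells by that in vehicle wells. Lung cancer cell lines were seeded in 1536-well plates, dosed by pin tool the next day, and fixed and stained after 5 days in one step with final 0.05% Triton X-100, 1% formaldehyde and 1 ug/ml Hoechst. Dosing was a single drug or a fixed anchor-drug dose plus five library-drug doses (not always all listed) in √10 steps, and values are medians of duplicate plates imaged at 4×.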

[2] = compound: Nc1ccccc1NC(=O)c1ccc(CNC(=O)OCc2cccnc2)cc1 [Entinostat] + CC(=O)Nc1cccc(-n2c(=O)n(C3CC3)c(=O)c3c(Nc4ccc(I)cc4F)n(C)c(=O)c(C)c32)c1 [Trametinib] (partner 0.02 µM)
Summary of the method: as §1

[3] = compound: Nc1ccccc1NC(=O)c1ccc(CNC(=O)OCc2cccnc2)cc1 [Entinostat] + CC(=O)c1c(C)c2cnc(Nc3ccc(N4CCNCC4)cn3)nc2n(C2CCCC2)c1=O [Palbociclib] (partner 0.5 µM)
Summary of the method: as §1

[4] = compound: Nc1ccccc1NC(=O)c1ccc(CNC(=O)OCc2cccnc2)cc1 [Entinostat] + C[C@@H](Oc1cc(-c2cnn(C3CCNCC3)c2)cnc1N)c1c(Cl)ccc(F)c1Cl [Crizotinib] (partner 1 µM)
Summary of the method: as §1

Row | Cell Line | relative viability ([1]; first compound 0.02 µM) | relative viability ([1]; first compound 0.06325 µM) | relative viability ([1]; first compound 0.2 µM) | relative viability ([1]; first compound 0.6325 µM) | relative viability ([1]; first compound 2 µM) | relative viability ([2]; first compound 0.02 µM) | relative viability ([2]; first compound 0.06325 µM) | relative viability ([2]; first compound 0.2 µM) | relative viability ([2]; first compound 0.6325 µM) | relative viability ([2]; first compound 2 µM) | relative viability ([3]; first compound 0.02 µM) | relative viability ([3]; first compound 0.06325 µM) | relative viability ([3]; first compound 0.2 µM) | relative viability ([3]; first compound 0.6325 µM) | relative viability ([3]; first compound 2 µM) | relative viability ([4]; first compound 0.02 µM) | relative viability ([4]; first compound 0.06325 µM) | relative viability ([4]; first compound 0.2 µM) | relative viability ([4]; first compound 0.6325 µM) | relative viability ([4]; first compound 2 µM)
1 | BEN | 0.765 | 0.702 | 0.744 | 0.673 | 0.588 | 1.18 | 1.04 | 0.79 | 0.63 | 0.441 | 0.543 | 0.466 | 0.457 | 0.454 | 0.4 | 0.985 | 0.884 | 0.997 | 0.631 | 0.31
2 | SW 1573 | 1.2 | 1.13 | 0.932 | 1.1 | 0.896 | 0.652 | 0.722 | 0.733 | 0.554 | 0.431 | 0.322 | 0.486 | 0.434 | 0.428 | 0.311 | 0.848 | 0.865 | 0.937 | 0.761 | 0.592
3 | NCI-H1993 | 0.787 | 0.822 | 0.841 | 0.826 | 0.814 | 0.484 | 0.572 | 0.504 | 0.475 | 0.492 | 0.653 | 0.667 | 0.725 | 0.642 | 0.273 | 0.832 | 0.848 | 0.774 | 0.76 | 0.597
4 | SK-LU-1 | 1.02 | 1.01 | 0.786 | 0.824 | 0.33 | 0.445 | 0.617 | 0.463 | 0.361 | 0.402 | 0.361 | 0.395 | 0.361 | 0.311 | 0.316 | 0.935 | 0.756 | 0.733 | 0.572 | 0.511
5 | NCI-H460 | 0.907 | 1.12 | 1.11 | 0.578 | 0.0915 | 0.226 | 0.0831 | 0.0851 | 0.0455 | 0.0239 | 0.112 | 0.0634 | 0.0456 | 0.0231 | 0.0171 | 0.907 | 0.945 | 0.522 | 0.0251 | 0.0158
6 | LCLC-97TM1 |  | 1.25 | 1.15 | 0.892 | 0.761 | 0.233 | 0.207 | 0.214 | 0.152 | 0.139 | 0.21 | 0.213 | 0.236 | 0.277 | 0.18 | 0.285 | 0.435 | 0.303 | 0.273 | 0.151
7 | HCC-78 | 0.671 | 0.792 | 0.767 | 0.762 | 0.72 | 0.706 | 0.662 | 0.505 | 0.377 | 0.253 | 0.523 | 0.462 | 0.491 | 0.468 | 0.531 | 0.37 | 0.293 | 0.234 | 0.163 | 0.141
8 | NCI-H1975 | 0.836 | 0.841 | 0.817 | 0.874 | 0.395 | 0.373 | 0.32 | 0.313 | 0.223 | 0.169 | 0.488 | 0.378 | 0.346 | 0.181 | 0.132 | 0.762 | 0.778 | 0.564 | 0.278 | 0.201
